According to patent US11324728B2, “Dosing regimens for the treatment of fungal infections” (Seren Pharmaceuticals Inc., priority 2017, dated 2022):

What was measured:
[1] = tested on: onychomycosis of the toenail; test: Phase II clinical study: changes over time in efficacy of the target nail (turbidity area ratio, clinical cure, relapse/reinfection); format: in vivo, human; settings: for Clinical cure (no visual sign of infection) / Clinical cure rate and 95% CI / Remaining of the visual sign of infection: target nail; for Clinical cure (no visual sign of infection) / Clinical cure rate and 95% CI / Remaining of the visual sign of infection / turbidity area ratio regarding the target nail, Mean / turbidity area ratio regarding the target nail, Median: PPS
Method: (§1) A Phase II clinical pharmacology study was conducted in subjects with onychomycosis of the toenail. The study investigated the pharmacokinetics, efficacy and safety of three different dosing regimens of fosravuconazole. […] The three treatment groups were as follows: • a.
(§2) The efficacy endpoints were: (1) overall clinical efficacy; (2) changes over time in efficacy; (3) confirmation of elements of dermatophytes by direct microscopy; and (4) results of identification of dermatophytes by the polymerase chain reaction (PCR) method.

fungal elements = test: Mycological cure: search for fungal elements by direct microscopy; format: in vivo, human; settings: PPS
Method: as §1, §2
At screening, fungal elements were found by direct microscopy in all treatment groups.

Compound: C[C@@H](c1nc(-c2ccc(C#N)cc2)cs1)[C@@](Cn1cncn1)(OCOP(=O)(O)O)c1ccc(F)cc1F [fosravuconazole, 4-[2-[(1R,2R)-2-(2,4-difluorophenyl)-1-methyl-2-[(phosphonooxy)methoxy]-3-(1H-1,2,4-triazol-1-yl)propyl]-4-thiazolyl]benzo-nitrile]
- relapse/reinfection ([1]; 100 mg (once daily dose) group): no subject
- Clinical cure (no visual sign of infection) ([1]; 100 mg group, Week 48): 11
- Clinical cure rate and 95% CI ([1]; 100 mg group, Week 48): 44.0 (24.5, 65.0) %
- Remaining of the visual sign of infection ([1]; 100 mg group, Week 48): 14
- turbidity area ratio regarding the target nail, Mean ([1]; 100 mg, Start day of treatment): 76.9%
- turbidity area ratio regarding the target nail, Median ([1]; 100 mg, Start day of treatment): 75.5%
- turbidity area ratio regarding the target nail, Mean ([1]; 100 mg, Week 4): 72.9%
- turbidity area ratio regarding the target nail, Median ([1]; 100 mg, Week 4): 72.0%
- turbidity area ratio regarding the target nail, Mean ([1]; 100 mg, Week 8): 65.9%
- turbidity area ratio regarding the target nail, Median ([1]; 100 mg, Week 8): 67.0%
- turbidity area ratio regarding the target nail, Mean ([1]; 100 mg, Week 12): 55.6%
- turbidity area ratio regarding the target nail, Median ([1]; 100 mg, Week 12): 56.0%
- turbidity area ratio regarding the target nail, Mean ([1]; 100 mg, Week 16): 44.2%
- turbidity area ratio regarding the target nail, Median ([1]; 100 mg, Week 16): 46.0%
- turbidity area ratio regarding the target nail, Mean ([1]; 100 mg, Week 20): 34.6%
- turbidity area ratio regarding the target nail, Median ([1]; 100 mg, Week 20): 36.0%
- turbidity area ratio regarding the target nail, Mean ([1]; 100 mg, Week 24): 26.5%
- turbidity area ratio regarding the target nail, Median ([1]; 100 mg, Week 24): 25.0%
- turbidity area ratio regarding the target nail, Mean ([1]; 100 mg, Week 28): 19.4%
- turbidity area ratio regarding the target nail, Median ([1]; 100 mg, Week 28): 18.0%
- turbidity area ratio regarding the target nail, Mean ([1]; 100 mg, Week 32): 14.4%
- turbidity area ratio regarding the target nail, Median ([1]; 100 mg, Week 32): 15.0%
- turbidity area ratio regarding the target nail, Mean ([1]; 100 mg, Week 36): 12.0%
- turbidity area ratio regarding the target nail, Median ([1]; 100 mg, Week 36): 9.0%
- turbidity area ratio regarding the target nail, Mean ([1]; 100 mg, Week 40): 9.6%
- turbidity area ratio regarding the target nail, Median ([1]; 100 mg, Week 40): 12.0%
- turbidity area ratio regarding the target nail, Mean ([1]; 100 mg, Week 44): 8.6%
- turbidity area ratio regarding the target nail, Median ([1]; 100 mg, Week 44): 8.0%
- turbidity area ratio regarding the target nail, Mean ([1]; 100 mg, Week 48): 9.3%
- turbidity area ratio regarding the target nail, Median ([1]; 100 mg, Week 48): 6.0%
- relapse/reinfection ([1]; 200 mg (pulse treatment) group): 4 subjects
- Clinical cure (no visual sign of infection) ([1]; 200 mg group, Week 48): 7
- Clinical cure rate and 95% CI ([1]; 200 mg group, Week 48): 31.8 (13.9, 54.8) %
- Remaining of the visual sign of infection ([1]; 200 mg group, Week 48): 15
- turbidity area ratio regarding the target nail, Mean ([1]; 200 mg, Start day of treatment): 76.4%
- turbidity area ratio regarding the target nail, Median ([1]; 200 mg, Start day of treatment): 74.0%
- turbidity area ratio regarding the target nail, Mean ([1]; 200 mg, Week 4): 69.6%
- turbidity area ratio regarding the target nail, Median ([1]; 200 mg, Week 4): 70.0%
- turbidity area ratio regarding the target nail, Mean ([1]; 200 mg, Week 8): 59.8%
- turbidity area ratio regarding the target nail, Median ([1]; 200 mg, Week 8): 58.5%
- turbidity area ratio regarding the target nail, Mean ([1]; 200 mg, Week 12): 51.4%
- turbidity area ratio regarding the target nail, Median ([1]; 200 mg, Week 12): 49.0%
- turbidity area ratio regarding the target nail, Mean ([1]; 200 mg, Week 16): 45.0%
- turbidity area ratio regarding the target nail, Median ([1]; 200 mg, Week 16): 45.0%
- turbidity area ratio regarding the target nail, Mean ([1]; 200 mg, Week 20): 35.8%
- turbidity area ratio regarding the target nail, Median ([1]; 200 mg, Week 20): 34.0%
- turbidity area ratio regarding the target nail, Mean ([1]; 200 mg, Week 24): 27.9%
- turbidity area ratio regarding the target nail, Median ([1]; 200 mg, Week 24): 25.0%
- turbidity area ratio regarding the target nail, Mean ([1]; 200 mg, Week 28): 23.3%
- turbidity area ratio regarding the target nail, Median ([1]; 200 mg, Week 28): 18.0%
- turbidity area ratio regarding the target nail, Mean ([1]; 200 mg, Week 32): 20.0%
- turbidity area ratio regarding the target nail, Median ([1]; 200 mg, Week 32): 9.0%
- turbidity area ratio regarding the target nail, Mean ([1]; 200 mg, Week 36): 18.2%
- turbidity area ratio regarding the target nail, Median ([1]; 200 mg, Week 36): 11.5%
- turbidity area ratio regarding the target nail, Mean ([1]; 200 mg, Week 40): 16.0%
- turbidity area ratio regarding the target nail, Median ([1]; 200 mg, Week 40): 10.0%
- turbidity area ratio regarding the target nail, Mean ([1]; 200 mg, Week 44): 13.5%
- turbidity area ratio regarding the target nail, Median ([1]; 200 mg, Week 44): 5.0%
- turbidity area ratio regarding the target nail, Mean ([1]; 200 mg, Week 48): 14.6%
- turbidity area ratio regarding the target nail, Median ([1]; 200 mg, Week 48): 9.0%
- Clinical cure (no visual sign of infection) ([1]; 300 mg group, Week 48): 11
- Clinical cure rate and 95% CI ([1]; 300 mg group, Week 48): 40.7 (22.4, 61.2) %
- Remaining of the visual sign of infection ([1]; 300 mg group, Week 48): 16
- relapse/reinfection ([1]; 400 mg group): 1 subject
- turbidity area ratio regarding the target nail, Mean ([1]; 400 mg, Start day of treatment): 74.4%
- turbidity area ratio regarding the target nail, Median ([1]; 400 mg, Start day of treatment): 76.0%
- turbidity area ratio regarding the target nail, Mean ([1]; 400 mg, Week 4): 66.9%
- turbidity area ratio regarding the target nail, Median ([1]; 400 mg, Week 4): 67.0%
- turbidity area ratio regarding the target nail, Mean ([1]; 400 mg, Week 8): 57.4%
- turbidity area ratio regarding the target nail, Median ([1]; 400 mg, Week 8): 59.0%
- turbidity area ratio regarding the target nail, Mean ([1]; 400 mg, Week 12): 49.3%
- turbidity area ratio regarding the target nail, Median ([1]; 400 mg, Week 12): 52.0%
- turbidity area ratio regarding the target nail, Mean ([1]; 400 mg, Week 16): 40.6%
- turbidity area ratio regarding the target nail, Median ([1]; 400 mg, Week 16): 41.0%
- turbidity area ratio regarding the target nail, Mean ([1]; 400 mg, Week 20): 31.1%
- turbidity area ratio regarding the target nail, Median ([1]; 400 mg, Week 20): 29.0%
- turbidity area ratio regarding the target nail, Mean ([1]; 400 mg, Week 24): 25.7%
- turbidity area ratio regarding the target nail, Median ([1]; 400 mg, Week 24): 20.0%
- turbidity area ratio regarding the target nail, Mean ([1]; 400 mg, Week 28): 18.3%
- turbidity area ratio regarding the target nail, Median ([1]; 400 mg, Week 28): 16.0%
- turbidity area ratio regarding the target nail, Mean ([1]; 400 mg, Week 32): 14.9%
- turbidity area ratio regarding the target nail, Median ([1]; 400 mg, Week 32): 12.0%
- turbidity area ratio regarding the target nail, Mean ([1]; 400 mg, Week 36): 13.5%
- turbidity area ratio regarding the target nail, Median ([1]; 400 mg, Week 36): 9.0%
- turbidity area ratio regarding the target nail, Mean ([1]; 400 mg, Week 40): 11.8%
- turbidity area ratio regarding the target nail, Median ([1]; 400 mg, Week 40): 6.0%
- turbidity area ratio regarding the target nail, Mean ([1]; 400 mg, Week 44): 11.9%
- turbidity area ratio regarding the target nail, Median ([1]; 400 mg, Week 44): 6.0%
- turbidity area ratio regarding the target nail, Mean ([1]; 400 mg, Week 48): 12.7%
- turbidity area ratio regarding the target nail, Median ([1]; 400 mg, Week 48): 8.0%
- Absence of fungal elements by direct microscopy (%) (fungal elements; 100 mg group, At screening): (0.0) %
- Absence of fungal elements by direct microscopy, subjects (fungal elements; 100 mg group, At screening): 0
- Presence of fungal elements by direct microscopy (%) (fungal elements; 100 mg group, At screening): (100.0) %
- Presence of fungal elements by direct microscopy, subjects (fungal elements; 100 mg group, At screening): 28
- Absence of fungal elements by direct microscopy (%) (fungal elements; 100 mg group, Week 12): (33.3) %
- Absence of fungal elements by direct microscopy, subjects (fungal elements; 100 mg group, Week 12): 9
- Presence of fungal elements by direct microscopy (%) (fungal elements; 100 mg group, Week 12): (16.7) %
- Presence of fungal elements by direct microscopy, subjects (fungal elements; 100 mg group, Week 12): 18
- Absence of fungal elements by direct microscopy (%) (fungal elements; 100 mg group, Week 24): (48.0) %
- Absence of fungal elements by direct microscopy, subjects (fungal elements; 100 mg group, Week 24): 12
- Presence of fungal elements by direct microscopy (%) (fungal elements; 100 mg group, Week 24): (52.0) %
- Presence of fungal elements by direct microscopy, subjects (fungal elements; 100 mg group, Week 24): 13
- Absence of fungal elements by direct microscopy, subjects (fungal elements; 100 mg group, Week 48): 18
- Presence of fungal elements by direct microscopy (%) (fungal elements; 100 mg group, Week 48): (28.0) %
- Presence of fungal elements by direct microscopy, subjects (fungal elements; 100 mg group, Week 48): 7
- Absence of fungal elements by direct microscopy (%) (fungal elements; 200 mg group, At screening): (0.0) %
- Absence of fungal elements by direct microscopy, subjects (fungal elements; 200 mg group, At screening): 0
- Presence of fungal elements by direct microscopy (%) (fungal elements; 200 mg group, At screening): (100.0) %
- Presence of fungal elements by direct microscopy, subjects (fungal elements; 200 mg group, At screening): 27
- Absence of fungal elements by direct microscopy (%) (fungal elements; 200 mg group, Week 12): (50.0) %
- Absence of fungal elements by direct microscopy, subjects (fungal elements; 200 mg group, Week 12): 13
- Presence of fungal elements by direct microscopy (%) (fungal elements; 200 mg group, Week 12): (50.0) %
- Presence of fungal elements by direct microscopy, subjects (fungal elements; 200 mg group, Week 12): 13
- Absence of fungal elements by direct microscopy (%) (fungal elements; 200 mg group, Week 24): (48.0) %
- Absence of fungal elements by direct microscopy, subjects (fungal elements; 200 mg group, Week 24): 12
- Presence of fungal elements by direct microscopy (%) (fungal elements; 200 mg group, Week 24): (52.0) %
- Presence of fungal elements by direct microscopy, subjects (fungal elements; 200 mg group, Week 24): 13
- Absence of fungal elements by direct microscopy, subjects (fungal elements; 200 mg group, Week 48): 8
- Presence of fungal elements by direct microscopy (%) (fungal elements; 200 mg group, Week 48): (63.6) %
- Presence of fungal elements by direct microscopy, subjects (fungal elements; 200 mg group, Week 48): 14
- Absence of fungal elements by direct microscopy (%) (fungal elements; 400 mg group, At screening): (0.0) %
- Absence of fungal elements by direct microscopy, subjects (fungal elements; 400 mg group, At screening): 0
- Presence of fungal elements by direct microscopy (%) (fungal elements; 400 mg group, At screening): (100.0) %
- Presence of fungal elements by direct microscopy, subjects (fungal elements; 400 mg group, At screening): 33
- Absence of fungal elements by direct microscopy (%) (fungal elements; 400 mg group, Week 12): (19.4) %
- Absence of fungal elements by direct microscopy, subjects (fungal elements; 400 mg group, Week 12): 6
- Presence of fungal elements by direct microscopy (%) (fungal elements; 400 mg group, Week 12): (80.6) %
- Presence of fungal elements by direct microscopy, subjects (fungal elements; 400 mg group, Week 12): 25
- Absence of fungal elements by direct microscopy (%) (fungal elements; 400 mg group, Week 24): (45.2) %
- Absence of fungal elements by direct microscopy, subjects (fungal elements; 400 mg group, Week 24): 14
- Presence of fungal elements by direct microscopy (%) (fungal elements; 400 mg group, Week 24): (54.8) %
- Presence of fungal elements by direct microscopy, subjects (fungal elements; 400 mg group, Week 24): 17
- Absence of fungal elements by direct microscopy, subjects (fungal elements; 400 mg group, Week 48): 17
- Presence of fungal elements by direct microscopy (%) (fungal elements; 400 mg group, Week 48): (37.0) %
- Presence of fungal elements by direct microscopy, subjects (fungal elements; 400 mg group, Week 48): 10
